According to EP0308568A1, “Diacyl derivatives of 4-(trialkylbenzyl)-piperazinyl compounds” (CIBA-GEIGY AG, priority 1987, dated 1989):
Converted amounts (≈) assume the structure as drawn.

What was measured:
Staphylococcus aureus [1] = experiment: Antibiotic effect in vivo in infected mice; design: species or system Mäuse; conditions: mice infected with Staphylococcus aureus, single dose of 200 mg/kg
Source text: (§1) Die Ermittlung der antibiotischen Wirkung erfolgt z.B. einerseits in vitro durch die Bestimmung der mittleren effektiven Konzentration EC₅₀ für die Hemmung der RNA-Polymerase von Escherichia coli, sowie der minimalen Hemmkonzentration MIC ("minimum inhibitory concentration") im konventionellen Plattentest, andererseits in vivo an infizierten Mäusen und Ratten durch die Bestimmung von ED₅₀ (effektive Dosis, die für 50 % der Versuchstiere lebenserhaltend ist). Als Mikroorganismen werden für den vorliegenden Zweck insbesondere Mycobacterium tuberculosis TB H₃₇Rv und Staphylococcus aureus verwendet. Bei Verbindungen mit lipidsenkender Indikation wird eine antibiotische Wirksamkeit als nachteilig erachtet, da sie, insbesondere bei langfristiger Verabreichung, zur Bildung von gegen Antibiotika resistenten Stämmen von Mikroorganismen führen kann.

[2] = target: RNA-Polymerase von Escherichia coli (Escherichia coli, UniProt P0A8V2); experiment: Inhibition of RNA polymerase (antibiotic effect in vitro); format: biochemical; conditions: not yet reached at 100 µg/ml; read-out: EC₅₀ für die Inhibition der RNA-Polymerase
RNA-Polymerase von Escherichia coli, sequence (P0A800 whole entry): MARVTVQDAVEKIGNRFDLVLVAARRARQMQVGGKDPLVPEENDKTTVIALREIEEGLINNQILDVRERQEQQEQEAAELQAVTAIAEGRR
RNA-Polymerase von Escherichia coli, sequence (P0A8T7 whole entry, further chain): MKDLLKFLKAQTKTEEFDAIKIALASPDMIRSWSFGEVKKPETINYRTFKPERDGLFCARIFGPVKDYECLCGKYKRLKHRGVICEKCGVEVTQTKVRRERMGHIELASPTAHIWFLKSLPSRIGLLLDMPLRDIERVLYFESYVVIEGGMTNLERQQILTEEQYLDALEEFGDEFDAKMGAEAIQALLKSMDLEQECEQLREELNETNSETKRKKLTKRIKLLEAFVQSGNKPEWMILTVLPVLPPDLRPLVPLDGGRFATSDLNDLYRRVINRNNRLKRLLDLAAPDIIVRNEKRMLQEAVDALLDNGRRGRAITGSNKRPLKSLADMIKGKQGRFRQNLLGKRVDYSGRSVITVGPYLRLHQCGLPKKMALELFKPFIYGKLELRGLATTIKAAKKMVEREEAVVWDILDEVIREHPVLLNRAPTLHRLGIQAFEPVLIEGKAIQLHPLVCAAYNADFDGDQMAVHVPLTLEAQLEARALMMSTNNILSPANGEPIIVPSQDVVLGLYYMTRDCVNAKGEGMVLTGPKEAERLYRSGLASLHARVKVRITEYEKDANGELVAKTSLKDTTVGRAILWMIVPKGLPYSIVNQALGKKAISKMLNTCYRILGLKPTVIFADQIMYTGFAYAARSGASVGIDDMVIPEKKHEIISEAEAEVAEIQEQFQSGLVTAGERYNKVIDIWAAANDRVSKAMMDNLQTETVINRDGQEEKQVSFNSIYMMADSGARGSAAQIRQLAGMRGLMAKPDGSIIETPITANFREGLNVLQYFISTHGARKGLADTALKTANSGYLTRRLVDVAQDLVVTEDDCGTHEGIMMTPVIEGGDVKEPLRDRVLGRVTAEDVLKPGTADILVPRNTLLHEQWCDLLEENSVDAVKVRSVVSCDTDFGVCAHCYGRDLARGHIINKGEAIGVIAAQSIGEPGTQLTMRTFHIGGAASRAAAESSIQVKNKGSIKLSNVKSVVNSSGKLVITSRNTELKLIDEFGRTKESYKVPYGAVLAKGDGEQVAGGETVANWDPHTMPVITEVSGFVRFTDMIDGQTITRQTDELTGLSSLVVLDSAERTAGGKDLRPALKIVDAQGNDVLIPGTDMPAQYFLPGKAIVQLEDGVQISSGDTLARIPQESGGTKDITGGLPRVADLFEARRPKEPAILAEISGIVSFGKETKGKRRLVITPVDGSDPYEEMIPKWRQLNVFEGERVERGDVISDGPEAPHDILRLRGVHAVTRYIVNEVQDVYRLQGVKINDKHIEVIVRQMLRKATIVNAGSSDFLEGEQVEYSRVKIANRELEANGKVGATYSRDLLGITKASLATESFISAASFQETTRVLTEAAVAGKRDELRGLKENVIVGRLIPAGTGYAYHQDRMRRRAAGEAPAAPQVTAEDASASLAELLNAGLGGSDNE
RNA-Polymerase von Escherichia coli, sequence (P0A8V2 whole entry): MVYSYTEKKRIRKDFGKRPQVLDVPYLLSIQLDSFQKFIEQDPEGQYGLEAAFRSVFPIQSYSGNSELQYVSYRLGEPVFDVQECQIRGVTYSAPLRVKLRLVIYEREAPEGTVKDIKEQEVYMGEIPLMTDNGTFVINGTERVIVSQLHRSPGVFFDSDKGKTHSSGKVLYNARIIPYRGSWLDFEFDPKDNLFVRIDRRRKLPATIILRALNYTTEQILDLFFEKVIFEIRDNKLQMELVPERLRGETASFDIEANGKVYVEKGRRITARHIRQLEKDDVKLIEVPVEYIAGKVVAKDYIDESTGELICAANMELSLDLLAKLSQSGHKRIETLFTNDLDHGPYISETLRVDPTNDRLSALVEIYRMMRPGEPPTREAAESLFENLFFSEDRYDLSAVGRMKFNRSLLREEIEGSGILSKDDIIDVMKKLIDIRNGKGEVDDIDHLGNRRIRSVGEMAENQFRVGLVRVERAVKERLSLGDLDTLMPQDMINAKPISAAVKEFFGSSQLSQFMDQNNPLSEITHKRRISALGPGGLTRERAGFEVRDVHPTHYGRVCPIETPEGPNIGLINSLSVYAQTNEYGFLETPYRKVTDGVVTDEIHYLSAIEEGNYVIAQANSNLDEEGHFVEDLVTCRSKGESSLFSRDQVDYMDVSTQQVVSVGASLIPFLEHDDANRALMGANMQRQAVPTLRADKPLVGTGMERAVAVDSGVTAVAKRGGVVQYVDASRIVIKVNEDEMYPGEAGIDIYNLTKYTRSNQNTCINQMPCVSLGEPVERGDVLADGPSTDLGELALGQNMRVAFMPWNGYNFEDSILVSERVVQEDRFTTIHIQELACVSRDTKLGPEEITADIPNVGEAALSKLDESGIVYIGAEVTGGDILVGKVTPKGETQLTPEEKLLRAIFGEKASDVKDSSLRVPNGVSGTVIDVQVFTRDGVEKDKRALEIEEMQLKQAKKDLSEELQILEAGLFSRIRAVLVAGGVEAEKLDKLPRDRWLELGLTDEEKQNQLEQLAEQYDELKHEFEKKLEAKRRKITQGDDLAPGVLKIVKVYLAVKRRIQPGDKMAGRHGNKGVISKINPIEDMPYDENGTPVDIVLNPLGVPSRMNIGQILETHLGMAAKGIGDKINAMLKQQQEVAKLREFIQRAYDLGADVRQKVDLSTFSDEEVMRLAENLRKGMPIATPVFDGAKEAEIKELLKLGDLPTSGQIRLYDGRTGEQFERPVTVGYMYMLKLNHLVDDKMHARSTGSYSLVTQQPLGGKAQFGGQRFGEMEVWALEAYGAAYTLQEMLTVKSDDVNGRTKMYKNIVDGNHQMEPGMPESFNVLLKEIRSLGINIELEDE
RNA-Polymerase von Escherichia coli, sequence (P0A7Z4 whole entry, further chain): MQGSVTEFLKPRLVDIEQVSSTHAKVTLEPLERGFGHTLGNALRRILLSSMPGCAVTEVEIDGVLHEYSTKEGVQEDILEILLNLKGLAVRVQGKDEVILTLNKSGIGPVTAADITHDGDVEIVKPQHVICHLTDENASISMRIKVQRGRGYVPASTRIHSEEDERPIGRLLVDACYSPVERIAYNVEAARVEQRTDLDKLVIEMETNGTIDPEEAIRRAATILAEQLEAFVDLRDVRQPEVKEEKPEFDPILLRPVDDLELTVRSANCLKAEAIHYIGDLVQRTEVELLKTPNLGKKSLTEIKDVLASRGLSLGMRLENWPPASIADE
Source text: as §1

[3] = system: "very low density"-, "low-density"- bzw. "high density"-Lipoproteinen (VLDL, LDL bzw. HDL) im Serum; experiment: Lipid-lowering effect in rats: serum lipoproteins after oral dosing (arrangement A: genetically hypercholesterolaemic male rats; arrangement B: normolipaemic rats); format: in vivo, Ratten; conditions: repeated administration of 30 mg/kg daily
Source text: Die Diacyl-Verbindungen der vorliegenden Erfindung dagegen weisen, wenn überhaupt, eine nur marginale antibiotische Wirkung auf. Ueberraschenderweise besitzen sie jedoch eine lipidsenkende Wirkung, die in Tierversuchen, vorzugsweise an Säugetieren, z.B. an Ratten, nachgewiesen werden kann. So kann die Senkung von "very low density"-, "low-density"- bzw. "high density"-Lipoproteinen (VLDL, LDL bzw. HDL) im Serum in zwei Testanordnungen, und zwar in genetisch hypercholesterolämischen männlichen Ratten (Anordnung A) und normolipämischen Ratten beiden Geschlechts (Anordnung B) gezeigt werden.
Albino-Ratten mit einem Körpergewicht von 180-240 g, die freien Zugang zu Standard-Rattenfutter und Trinkwasser haben, werden verwendet, und zwar in Anordnung A Sprague Dawley Abkömmlinge des Stammes Tif:RAI und in Anordnung B Tiere des Wistar-Stammes IVa-WI. Die Testverbindung wird in einer Polyethylenglykollösung (mittleres Molekulargewicht von 400) oral an Gruppen von 8 bis 10 Ratten verabreicht, in der Anordnung A einmal täglich um 8 Uhr vormittags während drei aufeinanderfolgenden Tagen und zweimal, um 8 Uhr und 16 Uhr, am vierten Tag, oder im Falle der Anordnung B täglich während 5 aufeinanderfolgenden Tagen. Im Experiment A werden die Tiere 16 Stunden und im Experiment B zwei Stunden nach der letzten Gabe durch Ausblutenlassen vom Hals unter Anästhesie mit Ether getötet. […]

Staphylococcus aureus [4] = experiment: Minimum inhibitory concentration, conventional plate test; format: cell-based; conditions: various pathogenic strains of Staphylococcus aureus
Source text: as §1

Question: With `COC1C=COC2(C)Oc3c(C)c(OC(=O)C(C)(C)C)c4c(c3C2=O)C(=O)C(N2CCN(Cc3c(C)cc(C)cc3C)CC2)=C(C4=O)N(C(=O)C(C)(C)C)C(=O)C(C)=CC=CC(C)C(O)C(C)C(O)C(C)C(OC(C)=O)C1C` (stereo not shown) [8-O,N-Dipivaloyl-3-[4-(2,4,6-trimethylbenzyl)-1-piperazinyl]-rifamycin S] as the molecule, how does the “antibiotische Wirksamkeit in vivo” value (Staphylococcus aureus [1]) read?
Answer: The value was “antibiotisch unwirksam”.

Question: What about the EC50 [2] of the same molecule?
Answer: The EC50 was greater than 92.6 µM.

Question: And the “Senkung der "LDL-Fraktion"” value [3]?
Answer: The value was 50-70%.

Question: What about the MIC (Staphylococcus aureus [4]) of the same molecule?
Answer: Its MIC is roughly 64 µg/mL (≈ 59.2 µM).
